Assay results published in patent publication US9499614B2, “Methods for modulating protein glycosylation profiles of recombinant protein therapeutics using monosaccharides and oligosaccharides” (AbbVie, Inc., priority 2013, dated 2016).

Columns and labels:
Cell Line 2 = test: Shake flask semi-fedbatch culture of Cell Line 2, cell culture performance (Example 1); assay type: cell-based, Chinese Hamster; details: 7 mM
Procedure: Two recombinant Chinese Hamster Ovary (CHO) cell lines expressing two different humanized monoclonal antibodies (Antibody 1, Antibody 2) were evaluated in two different culture vessels (shaker flasks and laboratory scale bioreactors). Both cell lines were of CHO DUX-B11 origin based on a dhfr (dihydrofolate reductase) expression system. Both cell lines were cultured in the same chemically defined basal media (CDBM), with Cell Line 1 also utilizing a chemically-defined feed media (CDFM). Each of the respective media were supplemented with selected monosaccharides and oligosaccharides to evaluate their potential impact on the resulting N-glycan oligosaccharide profile. In preparing the cultures, the cell lines were serially expanded through separate seed train inoculums to generate enough cells for inoculation.
Viable cell density (VCD) and cell viability values were measured through trypan blue exclusion via Cedex automated cell counters (Roche Applied Science, Indianapolis, Ind.), glucose and lactate values were measured with a ABL-805 (Radiometer Medical, Denmark) blood gas analyzer. Offline pH, dissolved oxygen (DO), and pCO2 measurements were performed with a ABL-805 (Radiometer Medical, Denmark) blood gas analyzer. Osmolality was measured on a Multi-Osmette 2430 osmometer (Precision Systems, Natick, Mass.).
Antibody titers were measured from crude cell culture harvests on a Poros A™ (Life Technologies, Carlsbad, Calif.) affinity column using an Agilent (Santa Clara, Calif.) 1200 Series HPLC, or equivalent, operating with a low pH, step elution gradient with detection at 280 nm. Absolute concentrations were assigned with respect to reference standard calibration curves.
Cell Line 2 was evaluated in shake flask culture in semi-fedbatch mode. Sucrose was supplemented into the basal media at various concentrations to evaluate the resulting impact on cell culture performance, as well as the protein glycosylation profile. […] There was however, a very significant impact on the protein glycosylation profiles of harvest samples across all sucrose concentrations evaluated (FIG. 12). […]

Cell Line 3 = test: N-glycan oligosaccharide profiling, Cell Line 3 shake flasks (Example 2); assay type: cell-based, Chinese Hamster; details: 30 mM supplement vs control
Procedure: Two recombinant Chinese Hamster Ovary (CHO) cell lines expressing two different recombinant glycoproteins were evaluated in two different cultures vessels (shaker flasks and 3 L laboratory scale bioreactors). Cell Line 1 expressed Antibody 1, Cell Line 2 expressed Dual Variable Domain Immunoglobulin 1 (DVD 1) and Cell Line 3 expressed Antibody 2. Antibodies 1 and 2 are IgG1 proteins, and DVD 1 is an immunoglobulin with two variable domains as documented previously (Wu C. et al., (2007) Nat. Biotechnol 25(11):1290-1297). All cell lines were of CHO DUX-B11 origin based on a dhfr (dihydrofolate reductase) expression system. All cell lines were cultured in the same chemically defined basal media. Cell lines 1 and 2 were fed with the same chemically-defined feed media, but Cell Line 1 was fed media that was formulated at a 50% higher concentration. Each of the respective media were supplemented with either sucrose or tagatose to evaluate their potential impact on the resulting N-glycan oligosaccharide profile. All sugars were purchased from Sigma-Aldrich (St. Louis, Mo.). In preparation of the cultures, the cell lines were serially expanded through separate seed train inoculums to generate enough cells for inoculation.
Purified antibodies subjected to additional analytical characterization were purified using MabSelect™ Protein A (GE Healthcare, Piscataway, N.J.) using a low pH, step elution gradient, followed by buffer exchange using Corning Lifesciences (Tewksbury, Mass.) Spin Concentrator X UF columns according to the manufacturers' recommended procedures.
Approximately 200 μg of Protein A purified samples from Cell Lines 1 and 2 were treated with N-glycanase at 37° C. overnight to remove the N-glycans from the protein. The protein was precipitated and the supernatant was taken for subsequent chemical derivatization of the reducing end of the released glycans with 2-aminobenzamide (2-AB) dye. Following the derivatization step, the excess label was removed using clean up cartridges and the samples were analyzed using normal phase HPLC with fluorescent detection. Mobile phase A was 100% acetonitrile and mobile phase B was 50 mM ammonium formate pH 4.4. The glycans were eluted from a polyamide column (Prozyme, Hayward, Calif.) using a shallow gradient. The labeled glycans were detected using a fluorescence detector with an excitation wavelength of 330 nm and an emission wavelength of 420 nm.
Cell Line 3 was evaluated in shake flask culture in chemically defined media supplemented with 7, 15, and 30 mM sucrose. There was a significant increase in overall mannosylation levels, and thus a significant decrease in overall fucosylation levels. […] This cumulative increase of 19% in overall mannosylated N-glycans was accompanied by a 27% drop in NGA2F species, the majority of which was precluded from being formed due to the abrogation of the N-glycan biosynthetic reaction shown in FIG. 2. […] Antibody 3, purified from the sucrose supplemented cell cultures, was tested in a Cr-51 release assay to evaluate effector function, specifically ADCC activity. This was performed to verify that the lower level of fucosylated N-glycans linked to Antibody 3 would facilitate an increase in ADCC activity. Antibodies purified from the 30 mM sucrose supplemented culture had the highest levels of high mannose N-glycans, and lowest levels of fucosylated N-glycans.

With OC[C@H]1O[C@@](CO)(O[C@H]2O[C@H](CO)[C@@H](O)[C@H](O)[C@H]2O)[C@@H](O)[C@@H]1O [sucrose] the cell viability (Cell Line 2; 15 mM and 30 mM) was “not significantly different from each other”, the harvest titer (Cell Line 2; 15 mM and 30 mM) was “not significantly different from each other” and the “drop in peak viable cell density” value (Cell Line 2; 15 mM and 30 mM vs control) was 1×10^6-2×10^6 cells/mL. For the same compound, the “cumulative increase in overall mannosylated N-glycans” value (Cell Line 3) was 19%, the “decrease in overall fucosylation level” value (Cell Line 3) was 19% and the “drop in NGA2F species” value (Cell Line 3) was 27%. For the same compound, the “increase in Man 5 species” value (Cell Line 3) was 17%, the “increase in Man 6 species” value (Cell Line 3) was 1% and the “increase in Man 7 species” value (Cell Line 3) was 1%. The “increase in NGA2F-GlcNAc species” value (Cell Line 3) was 8%.
